This note sets out measurements from patent US20230203060A1 (GENFLEET THERAPEUTICS (SHANGHAI) INC., priority 2020, published 2023).

Read-outs that look alike come from different tables or passages of the source.

Test [1] deals with phosphorylated ERK downstream of KRAS G12C in MIA PaCa2 cells. Kind of test: Cell p-ERK detection experiment (HTRF) in MIA PaCa2. It is filed as cell-based, human. The conditions noted are these: read-out: p-ERK IC50. The method, boiled down:
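Phospho-ERK (T202/Y204) measured by HTRF after 30 min lysis and 4 h antibody incubation in MIA PaCa2 (KRAS G12C) cells, seeded at 2.5E4 per well and treated 2 h with compounds in 3.16-fold steps, final DMSO 0.1%. IC50 from a four-parameter fit of percent inhibition relative to DMSO and blank wells.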

Test [2] deals with KRAS G12C mutant MIA PaCa-2 cells. In words: Cell proliferation inhibition experiment, 3D spheroid, CellTiter-Glo, MIA PaCa-2. Type of test: cell-based, human. The following applies: read-out: MIA-PaCa2 IC50. The method, boiled down:
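Luminescent ATP read-out (CellTiter-Glo) after 5-day compound treatment of spheroids formed overnight from 200 MIA PaCa-2 cells/well; compounds in 3.16-fold series, 0.1% DMSO final. IC50 derived by four-parameter fit of percent inhibition, normalized to DMSO control and medium blank.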

Setting [3] is: Homo sapiens, MIA PaCa-2, 2 h, MIA PaCa2 cells, 2 hours with compound, Advance ERK phospho-T202/Y204 HTRF kit.
Setting [4] is: MIA PaCa2 cells, 2 hours with compound, Advance ERK phospho-T202/Y204 HTRF kit.
Where [5] appears, read: Homo sapiens, MIA PaCa-2, 120 h, 3D cell model in 384-well spheroid plate, 5 days, CellTiter-Glo.
Setting [6] is: 3D cell model in 384-well spheroid plate, 5 days, CellTiter-Glo.

Consider `C=CC(=O)N1CCN2C(=O)c3c(N4C[C@@H](O)CC4(C)C)nc(-c4c(O)cccc4F)c(Cl)c3OC[C@H]2C1` (single isomer, unassigned) [Z81], for which, in test [1] (setting [3]), the 50% inhibitory concentration (IC50) (usually the concentration that gives 50% inhibition) came to 13 nM.
For the compound `C=CC(=O)N1CCN2C(=O)c3c(N4C[C@H](O)CC4(C)C)nc(-c4c(O)cccc4F)c(Cl)c3OC[C@H]2C1` (single isomer, unassigned) [Z82], the IC50 in test [1] (setting [3]) worked out at 136 nM.
Turning to `C=CC(=O)N1CCN2C(=O)c3c(N4CC(=O)N(C)CC4C)nc(-c4c(O)cccc4F)c(Cl)c3OC[C@H]2C1` (single isomer, unassigned) [Z221-1], the IC50 in test [1] (setting [4]) turned out to be 19 nM; in test [2] (setting [5]), 8.8 nM.
Take `C=CC(=O)N1CCN2C(=O)c3c(N4CC(=O)N(C)CC4C)nc(-c4c(O)cccc4F)c(Cl)c3OC[C@H]2C1` (single isomer, unassigned) [Z221-2]: the 50% inhibitory concentration (IC50) in test [1] (setting [4]) came to 173 nM.
As for `C=CC(=O)N1CCN2C(=O)c3c(N4CC(N(C)C5COC5)CC4(C)C)nc(-c4c(O)cccc4F)c(Cl)c3OC[C@H]2C1` (single isomer, unassigned) [Z331-1], the IC50 came out at 6 nM in test [1] (setting [3]) and 1.1 nM in test [2] (setting [5]).
With `C=CC(=O)N1CCN2C(=O)c3c(N4CC(N(C)C5COC5)CC4(C)C)nc(-c4c(O)cccc4F)c(Cl)c3OC[C@H]2C1` (single isomer, unassigned) [Z331-2], the IC50 in test [1] (setting [4]) is 7 nM; in test [2] (setting [6]), 1.3 nM.
On to `C=CC(=O)N1CCN2C(=O)c3c(N4CCN(C)C[C@@H]4C)nc(-c4c(O)cccc4Cl)c(Cl)c3OC[C@H]2C1` (single isomer, unassigned) [Z455-1], for which the IC50 turned out to be 479 nM in test [1] (setting [4]) and 86.9 nM in test [2] (setting [6]).
With `C=CC(=O)N1CCN2C(=O)c3c(N4CCN(C)C[C@@H]4C)nc(-c4c(O)cccc4Cl)c(Cl)c3OC[C@H]2C1` (single isomer, unassigned) [Z455-2], the half-maximal inhibitory concentration (IC50) in test [1] (setting [4]) turned out to be 33 nM; in test [2] (setting [6]), 9.2 nM.
`C=CC(=O)N1CCN2C(=O)c3c(N4CC(N5CCOCC5)CC4(C)C)nc(-c4ccccc4F)c(Cl)c3OC[C@H]2C1` (single isomer, unassigned) [Z468-2]: the IC50 in test [1] (setting [4]) stood at 61 nM; in test [2] (setting [6]), 12 nM.
Taken in the same sequence, the figures for `C=CC(=O)N1CCN2C(=O)c3c(N4C[C@H](N(C)C)CC4(C)C)nc(-c4ccccc4)c(Cl)c3OC[C@H]2C1` (single isomer, unassigned) [Z655-2] were 196 nM and 50.9 nM.
Turning to `C=CC(=O)N1CCN2C(=O)c3c(N4C[C@H](N(C)CCF)CC4(C)C)nc(-c4ccccc4F)c(Cl)c3OC[C@H]2C1` (single isomer, unassigned) [Z660-2], the results for the half-maximal inhibitory concentration (IC50) in test [1] (setting [4]) and in test [2] (setting [6]) were 91 nM and 47 nM, respectively.
Turning to `C=CC(=O)N1CCN2C(=O)c3c(N4C[C@H](NC)CC4(C)C)nc(-c4ccccc4F)c(Cl)c3OC[C@H]2C1` (single isomer, unassigned) [Z661-2], the IC50 was determined as 538 nM in test [1] (setting [3]) and 4 nM in test [2] (setting [5]).
In the case of `C=CC(=O)N1CCN2C(=O)c3c(Nc4c(C)ccnc4C(C)C)nc(-c4c(O)cccc4F)c(Cl)c3OC[C@H]2C1` [Z5, (6aR)-8-acryloyl-4-chloro-3-(2-fluoro-6-hydroxyphenyl)-1-((2-isopropyl-4-methylpyridin-3-yl)amino)-6,6a,7,8,9,10-hexahydro-12H-pyrazino[2,1-c]pyrido[3,4-f][1,4]oxazepin-12-one], the concentration for half-maximal inhibition (IC50) in test [1] (setting [3]) amounted to 163 nM; in test [2] (setting [5]), 143 nM.
For `C=CC(=O)N1CCN2C(=O)c3c(N(C)c4c(C)ccnc4C(C)C)nc(-c4c(O)cccc4F)c(Cl)c3OC[C@H]2C1` [Z6, (6aR)-8-acryloyl-4-chloro-3-(2-fluoro-6-hydroxyphenyl)-1-((2-isopropyl-4-methylpyridin-3-yl)(methyl)amino)-6,6a,7,8,9,10-hexahydro-12H-pyrazino[2,1-c]pyrido[3,4-f][1,4]oxazepin-12-one], the 50% inhibitory concentration (IC50) was 128 nM in test [1] (setting [3]) and 17 nM in test [2] (setting [5]).
As for `C=CC(=O)N1CCN2C(=O)c3c(OC4CCN(C)CC4)nc(-c4c(O)cccc4F)c(Cl)c3OC[C@H]2C1` [Z61, (6aR)-8-acryloyl-4-chloro-3-(2-fluoro-6-hydroxyphenyl)-1-((1-methylpiperidin-4-yl)oxy)-6,6a,7,8,9,10-hexahydro-12H-pyrazino[2,1-c]pyrido[3,4-f][1,4]oxazepin-12-one], the 50% inhibitory concentration (IC50) in test [2] (setting [5]) stood at 26 nM.
`C=CC(=O)N1CCN2C(=O)c3c(N4CCOC5(CC5)C4)nc(-c4c(O)cccc4F)c(Cl)c3OC[C@H]2C1` [Z63, (6aR)-8-acryloyl-4-chloro-1-(4-oxa-7-azaspiro[2.5]octan-7-yl)-3-(2-fluoro-6-hydroxyphenyl)-6,6a,7,8,9,10-hexahydro-12H-pyrazino[2,1-c]pyrido[3,4-f][1,4]oxazepin-12-one]: the values for the concentration for half-maximal inhibition (IC50) in test [1] (setting [3]) and in test [2] (setting [5]) were 154 nM and 23 nM, respectively.
Taken in the same sequence, the figures for `C=CC(=O)N1CCN2C(=O)c3c(N4CC[C@@H]4C)nc(-c4c(O)cccc4F)c(Cl)c3OC[C@H]2C1` [Z68, (6aR)-8-acryloyl-1-((S)-2-methylazetidin-1-yl)-4-chloro-3-(2-fluoro-6-hydroxyphenyl)-6,6a,7,8,9,10-hexahydro-12H-pyrazino[2,1-c]pyrido[3,4-f][1,4]oxazepin-12-one] were 88 nM and 18 nM.
In the case of `C=CC(=O)N1CCN2C(=O)c3c(NC(C)(C)C)nc(-c4c(O)cccc4F)c(Cl)c3OC[C@H]2C1` [Z69, (6aR)-8-acryloyl-1-(tert-butylamino)-4-chloro-3-(2-fluoro-6-hydroxyphenyl)-6,6a,7,8,9,10-hexahydro-12H-pyrazino[2,1-c]pyrido[3,4-f][1,4]oxazepin-12-one], the half-inhibitory concentration (IC50) is 79 nM in test [1] (setting [3]) and 28 nM in test [2] (setting [5]).
Regarding `C=CC(=O)N1CCN2C(=O)c3c(NC(C)C)nc(-c4c(O)cccc4F)c(Cl)c3OC[C@H]2C1` [Z75, (6aR)-8-acryloyl-4-chloro-1-(isopropylamino)-3-(2-fluoro-6-hydroxyphenyl)-6,6a,7,8,9,10-hexahydro-12H-pyrazino[2,1-c]pyrido[3,4-f][1,4]oxazepin-12-one], the IC50 in test [2] (setting [5]) came to 67 nM.
On to `C=CC(=O)N1CCN2C(=O)c3c(N4CCOC5CC54)nc(-c4c(O)cccc4F)c(Cl)c3OC[C@H]2C1` (stereo partly drawn) [Z76, (6aR)-8-acryloyl-4-chloro-1-(2-oxa-5-azabicyclo[4.1.0]heptan-5-yl)-3-(2-fluoro-6-hydroxyphenyl)-6,6a,7,8,9,10-hexahydro-12H-pyrazino[2,1-c]pyrido[3,4-f][1,4]oxazepin-12-one], for which the 50% inhibitory concentration (IC50) in test [2] (setting [5]) amounted to 34 nM.
Turning to `C=CC(=O)N1CCN2C(=O)c3c(N4CC(=O)N(C)CC4C)nc(-c4c(O)cccc4F)c(Cl)c3OC[C@H]2C1` (stereo partly drawn) [Z221, (6aR)-8-acryloyl-4-chloro-1-(2,4-dimethyl-5-oxopiperazin-1-yl)-3-(2-fluoro-6-hydroxyphenyl)-6,6a,7,8,9,10-hexahydro-12H-pyrazino[2,1-c]pyrido[3,4-f][1,4]oxazepin-12-one], the IC50 in test [1] (setting [3]) came to 23 nM; in test [2] (setting [5]), 4.5 nM.
In the same order, the values of `C=CC(=O)N1CCN2C(=O)c3c(N4CCN(C)[C@H](C)C4)nc(-c4c(O)cccc4F)c(Cl)c3OC[C@H]2C1` [Z235, (6aR)-8-acryloyl-4-chloro-1-((R)-3,4-dimethylpiperazin-1-yl)-3-(2-fluoro-6-hydroxyphenyl)-6,6a,7,8,9,10-hexahydro-12H-pyrazino[2,1-c]pyrido[3,4-f][1,4]oxazepin-12-one] are 138 nM and 22.8 nM.
As for `C=CC(=O)N1CCN2C(=O)c3c(N4CCN(CC)C[C@@H]4C)nc(-c4c(O)cccc4F)c(Cl)c3OC[C@H]2C1` [Z236], the IC50 in test [1] (Homo sapiens, MIA PaCa-2, 2 h) amounted to 25 nM; in test [2] (Homo sapiens, MIA PaCa-2, 120 h) it was 7.9 nM.
In the case of `C=CC(=O)N1CCN2C(=O)c3c(N4CC(O)CC4(C)C)nc(-c4c(O)cccc4F)c(F)c3OC[C@H]2C1` (stereo partly drawn) [Z256, (6aR)-8-acryloyl-4-fluoro-3-(2-fluoro-6-hydroxyphenyl)-1-(4-hydroxy-2,2-dimethylpyrrolidin-1-yl)-6,6a,7,8,9,10-hexahydro-12H-pyrazino[2,1-c]pyrido[3,4-f][1,4]oxazepin-12-one], the concentration for half-maximal inhibition (IC50) was 43 nM in test [1] (setting [3]) and 10.8 nM in test [2] (setting [5]).
Turning to `C=CC(=O)N1CCN2C(=O)c3c(N4CCN(CCO)C[C@@H]4C)nc(-c4c(O)cccc4F)c(Cl)c3OC[C@H]2C1` [Z257, (6aR)-8-acryloyl-4-chloro-3-(2-fluoro-6-hydroxyphenyl)-1-((S)-4-(2-hydroxyethyl)-2-methylpiperazin-1-yl)-6,6a,7 ,8,9,10-hexahydro-12H-pyrazino[2,1-c]pyrido[3,4-f][1,4]oxazepin-12-one], the IC50 in test [1] (setting [3]) was determined as 104 nM; in test [2] (setting [5]), 11.3 nM.
In the case of `C=CC(=O)N1CCN2C(=O)c3c(N4C[C@H](O)C[C@@H]4C)nc(-c4c(O)cccc4F)c(Cl)c3OC[C@H]2C1` [Z259, (6aR)-8-acryloyl-4-chloro-3-(2-fluoro-6-hydroxyphenyl)-1-((2S,4R)-4-hydroxy-2-methylpyrrolidin-1-yl)-6,6a,7,8,9,10-hexahydro-12H-pyrazino[2,1-c]pyrido[3,4-f][1,4]oxazepin-12-one], the IC50 in test [1] (setting [3]) is 195 nM.
As for `C=CC(=O)N1CCN2C(=O)c3c(N4CCNC(C)C4C)nc(-c4c(O)cccc4F)c(Cl)c3OC[C@H]2C1` (stereo partly drawn) [Z308, (6aR)-8-acryloyl-4-chloro-1-(2,3-dimethylpiperazin-1-yl)-3-(2-fluoro-6-hydroxyphenyl)-6,6a,7,8,9, 10-hexahydro-12H-pyrazino[2,1-c]pyrido[3,4-f][1,4]oxazepin-12-one], in test [2] (setting [5]), the 50% inhibitory concentration (IC50) is 34 nM.
